The numbers were not newly measured in patent EP0243248A1, “Compositions for the treatment of baldness and alopecia” (LABORATOIRES PHARMACEUTIQUES ROCHE-POSAY, priority 1986, dated 1987), which cites them from elsewhere.

The conditions of this series: for solubilité dans l'eau: water; for solubilité dans l'alcool: alcohol, in words; for solubilité dans les solutions alcalines / en milieu alcalin: alkaline solutions / alkaline medium.

For `O=C1NC(=O)C(c2ccccc2)(c2ccccc2)N1` [Phenytoïne, diphényl-5,5 imidazolidinedione-2,4], the “solubilité dans l'eau” value is “pratiquement insoluble”.
For `CC1=NS(=O)(=O)c2cc(Cl)ccc2N1` [diazoxyde, chloro-7 méthyl-3 benzothiadiazine 1, 2,4 dioxyde-1,1], the “solubilité dans l'alcool” value is recorded as “solubles”, the “solubilité dans les solutions alcalines / en milieu alcalin” value is recorded as “solubles” and the “solubilité dans l'eau” value is “insolubles”.
For `O=C1NC(=O)C(c2ccccc2)(c2ccccc2)N1` [diphénylhydantoï-nate de sodium], the “solubilité dans l'alcool” value is given as “un peu soluble”, the “solubilité dans les solutions alcalines / en milieu alcalin” value is reported as “soluble” and the “solubilité dans l'eau” value is given as “un peu soluble”. Under “chloroform”, the “solubilité dans le chloroforme” value was “insoluble”. Moreover, the “solubilité dans l'ether” value (ether) was “insoluble”.
